# Reference: ChEMBL document CHEMBL6127072, “PROTAC unleashed: Unveiling the synthetic approaches and potential therapeutic applications” (Eur J Med Chem, 2024)
# Tests used:
# [1] = target: Protein cereblon/Leucine-rich repeat serine/threonine-protein kinase 2 (Homo sapiens, UniProt Q5S007+Q96SW2); assay: PROTAC activity at CRBN/LRRK2 in human MOLT-4 cells assessed as induction of protein .degradation incubated for 48 hrs by Western blot analysis; type: cell-based
# [2] = target: T1, Protein cereblon/Bromodomain-containing protein 4 (Homo sapiens, UniProt O60885+Q96SW2); assay: PROTAC activity at CRBN/BRD4 in human MV4-11 cells assessed as induction of degradation of BRD4; type: cell-based
# [3] = target: Protein cereblon/Microtubule-associated protein tau (Homo sapiens, UniProt P10636+Q96SW2); assay: PROTAC activity at CRBN/tau in HEK293T cells measured for 48 hrs by immunoblot analysis; type: cell-based
# NS3 protease = NS3 protease (Hepacivirus C, UniProt C1KIQ2); assay: Inhibition of Hepatitis C virus NS3 protease; design: species or system Hepacivirus hominis
# [4] = target: T1, Protein cereblon/Bromodomain-containing protein 4; assay: PROTAC activity at CRBN/BRD4 in human MV4-11 cells assessed as induction of degradation of BRD4 measured after 24 hrs by Western blot analysis; type: cell-based
# [5] = target: T1, Protein cereblon/Bromodomain-containing protein 4; assay: PROTAC activity at CRBN/BRD4 in human MV4-11 cells assessed as maximal degradation at 1 uM incubated for 30 mins by Western blot analysis relative to control; type: cell-based
# [6] = target: T2, 3-hydroxy-3-methylglutaryl-coenzyme A reductase (Homo sapiens, UniProt P04035); assay: Inhibition of HMG-CoA Reductase (unknown origin)
# T2 sequence (P04035 whole entry): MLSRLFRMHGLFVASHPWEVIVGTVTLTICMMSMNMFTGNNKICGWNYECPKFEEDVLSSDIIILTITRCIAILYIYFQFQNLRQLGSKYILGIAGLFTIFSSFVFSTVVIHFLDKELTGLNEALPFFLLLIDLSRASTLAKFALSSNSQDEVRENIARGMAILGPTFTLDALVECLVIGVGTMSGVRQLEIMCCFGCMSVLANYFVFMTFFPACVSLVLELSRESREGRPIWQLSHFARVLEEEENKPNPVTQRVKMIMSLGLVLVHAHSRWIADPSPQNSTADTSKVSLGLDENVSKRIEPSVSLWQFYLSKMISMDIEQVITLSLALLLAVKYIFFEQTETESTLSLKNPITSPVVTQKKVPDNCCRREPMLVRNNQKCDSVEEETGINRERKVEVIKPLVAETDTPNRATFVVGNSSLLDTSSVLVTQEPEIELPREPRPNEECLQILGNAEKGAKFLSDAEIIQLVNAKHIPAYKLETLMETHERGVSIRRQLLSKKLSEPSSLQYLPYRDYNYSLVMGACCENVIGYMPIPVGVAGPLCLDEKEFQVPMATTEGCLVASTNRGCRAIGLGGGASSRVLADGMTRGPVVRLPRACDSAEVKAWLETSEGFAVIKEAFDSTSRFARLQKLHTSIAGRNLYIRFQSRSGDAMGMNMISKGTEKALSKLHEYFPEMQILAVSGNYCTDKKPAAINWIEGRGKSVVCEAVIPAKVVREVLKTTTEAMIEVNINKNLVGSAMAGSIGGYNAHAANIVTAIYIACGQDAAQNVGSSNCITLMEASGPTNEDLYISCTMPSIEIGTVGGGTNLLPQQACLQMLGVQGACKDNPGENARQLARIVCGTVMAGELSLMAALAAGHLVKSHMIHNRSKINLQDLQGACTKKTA
# [7] = target: T3, 3-hydroxy-3-methylglutaryl-coenzyme A reductase (Homo sapiens) (UniProt P04035); assay: Inhibition of HMG-CoA reductase (unknown origin) at 10 uM relative to control
# T3 sequence (whole entry): T2 sequence (P04035 whole entry)
# [8] = target: Replicase polyprotein 1ab (Severe acute respiratory syndrome coronavirus 2, UniProt P0DTD1); assay: Inhibition of SARS CoV-2 MPro
# [9] = target: Protein cereblon/Androgen receptor (Homo sapiens, UniProt P10275+Q96SW2); assay: PROTAC activity at AR/CRBN in human A549 cells assessed as induction of androgen receptor degradation measured after 1 hr by Western blot analysis; type: cell-based
# Chain of Protein cereblon/Androgen receptor (P10275 whole entry): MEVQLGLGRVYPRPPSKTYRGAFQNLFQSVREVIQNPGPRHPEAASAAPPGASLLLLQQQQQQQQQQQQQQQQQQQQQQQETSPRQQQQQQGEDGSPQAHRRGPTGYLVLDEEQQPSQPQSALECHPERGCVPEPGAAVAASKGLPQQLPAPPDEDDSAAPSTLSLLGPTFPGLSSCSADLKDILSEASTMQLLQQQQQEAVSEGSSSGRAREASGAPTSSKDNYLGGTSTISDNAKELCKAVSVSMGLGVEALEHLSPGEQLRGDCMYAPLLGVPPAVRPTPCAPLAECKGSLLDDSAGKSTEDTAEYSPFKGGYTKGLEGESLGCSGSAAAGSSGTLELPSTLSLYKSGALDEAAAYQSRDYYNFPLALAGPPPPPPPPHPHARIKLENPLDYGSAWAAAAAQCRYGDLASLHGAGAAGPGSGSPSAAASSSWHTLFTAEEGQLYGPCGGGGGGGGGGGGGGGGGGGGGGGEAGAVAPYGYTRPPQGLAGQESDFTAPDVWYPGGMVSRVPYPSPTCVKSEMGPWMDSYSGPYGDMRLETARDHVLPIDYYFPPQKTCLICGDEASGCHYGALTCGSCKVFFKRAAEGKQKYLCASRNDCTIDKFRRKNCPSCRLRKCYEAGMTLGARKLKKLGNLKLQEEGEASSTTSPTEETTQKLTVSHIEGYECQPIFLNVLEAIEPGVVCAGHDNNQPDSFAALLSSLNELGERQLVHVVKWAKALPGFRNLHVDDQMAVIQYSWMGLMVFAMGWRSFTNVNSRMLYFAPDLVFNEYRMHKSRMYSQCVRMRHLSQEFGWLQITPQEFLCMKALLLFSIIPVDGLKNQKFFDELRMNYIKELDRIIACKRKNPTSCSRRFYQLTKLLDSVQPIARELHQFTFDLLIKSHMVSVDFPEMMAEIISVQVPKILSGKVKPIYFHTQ
# Chain of Protein cereblon/Androgen receptor (Q96SW2 whole entry): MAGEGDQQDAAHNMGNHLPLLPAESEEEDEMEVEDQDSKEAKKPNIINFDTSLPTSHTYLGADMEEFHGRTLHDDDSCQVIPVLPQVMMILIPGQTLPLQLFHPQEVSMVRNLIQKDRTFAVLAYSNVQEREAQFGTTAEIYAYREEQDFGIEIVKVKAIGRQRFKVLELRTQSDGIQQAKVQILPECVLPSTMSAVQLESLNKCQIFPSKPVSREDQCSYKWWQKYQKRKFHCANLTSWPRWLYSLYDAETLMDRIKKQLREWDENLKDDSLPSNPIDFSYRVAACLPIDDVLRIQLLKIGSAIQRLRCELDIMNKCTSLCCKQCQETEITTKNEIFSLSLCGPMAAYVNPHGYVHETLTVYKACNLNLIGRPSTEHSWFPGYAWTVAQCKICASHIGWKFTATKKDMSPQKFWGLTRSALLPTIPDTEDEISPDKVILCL
# T1 sequence (Q96SW2 whole entry, looked up, other chains not shown): as the sequence (Q96SW2 whole entry) above
# Chain of Protein cereblon/Leucine-rich repeat serine/threonine-protein kinase 2 (Q5S007 whole entry): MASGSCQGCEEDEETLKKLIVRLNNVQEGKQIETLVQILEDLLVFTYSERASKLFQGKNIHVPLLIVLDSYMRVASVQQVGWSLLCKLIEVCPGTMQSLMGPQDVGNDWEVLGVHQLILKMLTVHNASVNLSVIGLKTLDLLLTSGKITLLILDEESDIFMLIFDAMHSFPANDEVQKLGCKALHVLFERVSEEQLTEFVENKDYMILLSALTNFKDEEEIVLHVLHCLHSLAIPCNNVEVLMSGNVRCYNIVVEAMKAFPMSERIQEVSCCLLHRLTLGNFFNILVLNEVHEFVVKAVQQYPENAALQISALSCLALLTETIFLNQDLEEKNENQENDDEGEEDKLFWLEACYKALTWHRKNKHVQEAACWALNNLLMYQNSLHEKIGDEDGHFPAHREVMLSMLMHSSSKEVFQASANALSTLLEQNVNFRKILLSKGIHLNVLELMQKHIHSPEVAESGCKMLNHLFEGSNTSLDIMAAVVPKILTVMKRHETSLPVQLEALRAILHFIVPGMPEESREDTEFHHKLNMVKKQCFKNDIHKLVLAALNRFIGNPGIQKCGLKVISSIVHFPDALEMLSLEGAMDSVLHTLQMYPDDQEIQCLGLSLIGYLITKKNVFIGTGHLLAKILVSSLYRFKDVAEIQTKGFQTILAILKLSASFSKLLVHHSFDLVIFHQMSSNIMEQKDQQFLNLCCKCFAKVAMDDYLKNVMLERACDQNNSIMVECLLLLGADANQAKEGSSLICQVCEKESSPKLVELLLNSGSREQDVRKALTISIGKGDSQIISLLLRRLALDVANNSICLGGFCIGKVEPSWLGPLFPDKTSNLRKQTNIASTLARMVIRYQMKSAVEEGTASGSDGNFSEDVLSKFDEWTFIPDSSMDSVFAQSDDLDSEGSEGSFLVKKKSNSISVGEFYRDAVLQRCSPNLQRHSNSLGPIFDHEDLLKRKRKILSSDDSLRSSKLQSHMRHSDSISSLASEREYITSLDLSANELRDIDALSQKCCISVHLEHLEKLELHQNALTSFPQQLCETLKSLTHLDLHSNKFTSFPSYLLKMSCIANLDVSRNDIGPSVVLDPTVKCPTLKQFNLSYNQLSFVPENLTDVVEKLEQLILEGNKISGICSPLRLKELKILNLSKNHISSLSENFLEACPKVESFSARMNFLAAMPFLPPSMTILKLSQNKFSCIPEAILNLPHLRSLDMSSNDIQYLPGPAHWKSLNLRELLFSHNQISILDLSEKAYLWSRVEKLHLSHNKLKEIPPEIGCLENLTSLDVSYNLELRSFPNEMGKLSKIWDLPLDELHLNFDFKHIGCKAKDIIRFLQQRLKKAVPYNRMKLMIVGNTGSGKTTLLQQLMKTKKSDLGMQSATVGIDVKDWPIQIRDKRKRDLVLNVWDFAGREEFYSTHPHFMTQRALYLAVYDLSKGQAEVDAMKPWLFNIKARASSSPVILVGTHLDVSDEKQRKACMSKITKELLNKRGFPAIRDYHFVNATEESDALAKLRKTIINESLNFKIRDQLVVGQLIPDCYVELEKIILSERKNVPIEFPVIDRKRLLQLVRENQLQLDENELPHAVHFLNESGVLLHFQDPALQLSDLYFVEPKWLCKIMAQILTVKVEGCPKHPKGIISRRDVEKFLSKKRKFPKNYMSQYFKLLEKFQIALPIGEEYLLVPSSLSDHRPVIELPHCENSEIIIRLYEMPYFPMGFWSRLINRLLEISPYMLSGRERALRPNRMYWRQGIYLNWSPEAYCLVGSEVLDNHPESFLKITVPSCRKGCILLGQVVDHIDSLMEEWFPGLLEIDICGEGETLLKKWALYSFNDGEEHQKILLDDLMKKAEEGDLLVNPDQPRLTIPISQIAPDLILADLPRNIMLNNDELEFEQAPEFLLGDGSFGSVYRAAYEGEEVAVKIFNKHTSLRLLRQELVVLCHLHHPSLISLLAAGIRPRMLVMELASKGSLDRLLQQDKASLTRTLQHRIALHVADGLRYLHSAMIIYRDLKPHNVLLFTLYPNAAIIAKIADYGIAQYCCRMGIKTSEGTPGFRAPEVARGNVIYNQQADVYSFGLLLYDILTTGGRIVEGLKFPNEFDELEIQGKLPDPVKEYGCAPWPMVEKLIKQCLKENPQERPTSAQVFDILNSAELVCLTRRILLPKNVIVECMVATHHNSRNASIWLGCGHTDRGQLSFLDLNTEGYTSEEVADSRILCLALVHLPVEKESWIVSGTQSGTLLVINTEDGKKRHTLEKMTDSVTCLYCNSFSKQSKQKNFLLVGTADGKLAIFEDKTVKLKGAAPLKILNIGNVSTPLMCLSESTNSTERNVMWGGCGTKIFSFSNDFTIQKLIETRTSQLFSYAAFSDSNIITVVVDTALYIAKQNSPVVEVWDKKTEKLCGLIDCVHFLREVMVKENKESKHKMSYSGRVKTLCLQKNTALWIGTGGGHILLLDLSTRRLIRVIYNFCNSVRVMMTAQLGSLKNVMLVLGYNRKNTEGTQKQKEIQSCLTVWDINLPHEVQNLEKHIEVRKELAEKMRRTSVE
# Chain of Protein cereblon/Leucine-rich repeat serine/threonine-protein kinase 2 (Q96SW2 whole entry): as the sequence (Q96SW2 whole entry) above
# Chain of NS3 protease (C1KIQ2 whole entry): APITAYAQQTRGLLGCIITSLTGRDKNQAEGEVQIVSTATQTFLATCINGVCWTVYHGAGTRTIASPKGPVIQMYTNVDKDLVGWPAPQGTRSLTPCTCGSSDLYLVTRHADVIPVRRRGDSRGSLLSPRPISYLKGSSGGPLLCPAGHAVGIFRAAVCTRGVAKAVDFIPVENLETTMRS
# Chain of Protein cereblon/Microtubule-associated protein tau (P10636 whole entry): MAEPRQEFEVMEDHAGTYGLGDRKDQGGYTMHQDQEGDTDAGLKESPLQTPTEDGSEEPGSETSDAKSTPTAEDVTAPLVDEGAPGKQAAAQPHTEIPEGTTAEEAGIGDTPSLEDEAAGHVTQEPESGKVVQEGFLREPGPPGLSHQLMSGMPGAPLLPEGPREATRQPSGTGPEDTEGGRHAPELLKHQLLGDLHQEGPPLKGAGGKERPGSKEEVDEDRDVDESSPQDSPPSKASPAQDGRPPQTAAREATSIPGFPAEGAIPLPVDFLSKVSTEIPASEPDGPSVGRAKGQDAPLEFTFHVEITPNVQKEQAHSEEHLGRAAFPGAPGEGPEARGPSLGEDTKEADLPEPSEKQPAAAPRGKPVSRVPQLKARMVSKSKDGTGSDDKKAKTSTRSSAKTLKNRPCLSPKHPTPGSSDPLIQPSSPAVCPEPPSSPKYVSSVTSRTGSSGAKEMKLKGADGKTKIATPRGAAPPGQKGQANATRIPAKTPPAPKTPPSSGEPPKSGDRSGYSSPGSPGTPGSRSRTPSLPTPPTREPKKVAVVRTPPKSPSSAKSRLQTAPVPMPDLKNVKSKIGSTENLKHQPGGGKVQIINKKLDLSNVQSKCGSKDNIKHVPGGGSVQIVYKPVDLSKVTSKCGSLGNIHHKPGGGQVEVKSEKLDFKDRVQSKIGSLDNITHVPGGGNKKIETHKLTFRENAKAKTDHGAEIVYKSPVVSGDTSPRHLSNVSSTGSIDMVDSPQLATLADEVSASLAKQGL
# Chain of Protein cereblon/Microtubule-associated protein tau (Q96SW2 whole entry): as the sequence (Q96SW2 whole entry) above
structure (smiles),measurement,setting,value
CC(C)C[C@H](CCOCCOCCOCCNc1ccc(-c2cc(-c3cccc(Br)c3)[nH]n2)cc1)NC(=O)[C@H](O)[C@@H](N)Cc1ccccc1,DC50,[1],5.04 µM
Cc1cc(-c2cc(NC(=O)CCC(=O)NCCOCCOCCNc3ccc4c(c3)C(=O)N(C3CCC(=O)NC3=O)C4=O)ccc2Oc2ccccc2)n2cc[nH]c(=O)c12 (stereo unspecified),DC50,[2],0.00075 µM
O=C(CCc1ccc2[nH]c3ccncc3c2c1)NCCOCCCOCCNc1cccc2c1C(=O)N(C1CCC(=O)NC1=O)C2=O (stereo unspecified),DC50,[3],0.075 µM
CCC[C@H](NC(=O)[C@H]1N(C(=O)[C@@H](NC(=O)[C@@H](NC(=O)c2cnc(CC(=O)NCCOCCOCCOc3cc4c5c(cccc5c3)C(=O)N(C3CCC(=O)NC3=O)C4=O)cn2)C2CCCCC2)C(C)(C)C)C[C@]2(C)CCC[C@]12C)C(=O)C(=O)NC1CC1 (stereo partly specified),EC50,NS3 protease,0.05 µM
Cc1sc2c(c1C)C(c1ccc(Cl)cc1)=N[C@@H](CC(=O)NCCCCCNCCOc1ccc(C3CC(=O)NC(=O)C3)cc1)c1nnc(C)n1-2,DC50,[4],< 0.001 µM
same,Emax,[5],99%
Cc1ncsc1-c1ccc(CNC(=O)[C@@H]2C[C@@H](O)CN2C(=O)[C@@H](NC(=O)CCCCCCCCCCNC(=O)O[C@@H]2C[C@H](C)C=C3C=C[C@@H](C)[C@@H](CC[C@@H](O)C[C@@H](C)CC(=O)O)[C@@H]32)C(C)(C)C)cc1,IC50,[6],0.12 µM
Cc1ncsc1-c1ccc(CNC(=O)[C@@H]2C[C@@H](O)CN2C(=O)[C@@H](NC(=O)CCCCCCCCCCNC(=O)O[C@@H]2C[C@H](C)C=C3C=C[C@@H](C)[C@@H](CC[C@@H]4C[C@@H](O)CC(=O)O4)[C@@H]32)C(C)(C)C)cc1,inhibition,[7],56%
Cc1ncsc1-c1ccc(CNC(=O)[C@@H]2C[C@@H](O)CN2C(=O)[C@@H](NC(=O)CCOCCOCCOCCNC(=O)[C@]23CCC(C)(C)C[C@H]2[C@H]2CC[C@@H]4[C@@]5(C)CC[C@H](O)C(C)(C)[C@@H]5CC[C@@]4(C)[C@]2(C)CC3)C(C)(C)C)cc1,IC50,[8],1.14 µM
C[C@@H](OC(C)(C)C)[C@H](NC(=O)OCc1cccc(OCCCCCOc2cccc3c2C(=O)N(C2CCC(=O)NC2=O)C3=O)c1)C(=O)N[C@H](CN[C@H](C=O)C[C@@H]1CCNC1=O)CC1CCCCC1 (stereo partly specified),EC50,[8],0.29 µM
CC1(C)C(=O)N(c2ccc(C#N)c(C(F)(F)F)c2)C(=O)N1c1ccc(-c2ccc(O[C@@H]3CCN(C(=O)C4CCN(c5ccc6c(c5)C(=O)N(C5CCC(=O)NC5=O)C6=O)CC4)C3)cc2)cc1 (stereo partly specified),DC50,[9],0.075 µM
